In PubChem BioAssay (NCI):
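Tested at 5 concentrations; 48 h exposure; 96-well plates; endpoints linearly interpolated, else capped at highest concentration. TGI marks complete inhibition of growth.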

Columns and labels:
Experiment in all cases: NCI tumour cell line growth inhibition, 48 h
786-0 renal = test system: 786-0 renal
A498 renal = test system: A498 renal
A549 NSCLC = test system: A549 NSCLC
BT-549 breast = test system: BT-549 breast
CAKI-1 renal = test system: CAKI-1 renal
CCRF-CEM leukemia = test system: CCRF-CEM leukemia
COLO 205 colon = test system: COLO 205 colon
DU-145 prostate = test system: DU-145 prostate
EKVX NSCLC = test system: EKVX NSCLC
HCC-2998 colon = test system: HCC-2998 colon
HCT-116 colon = test system: HCT-116 colon
HCT-15 colon = test system: HCT-15 colon
HL-60(TB) leukemia = test system: HL-60(TB) leukemia
HS 578T breast = test system: HS 578T breast
HT29 colon = test system: HT29 colon
IGROV1 ovarian = test system: IGROV1 ovarian
K-562 leukemia = test system: K-562 leukemia
KM12 colon = test system: KM12 colon
LOX IMVI melanoma = test system: LOX IMVI melanoma
M14 melanoma = test system: M14 melanoma
MALME-3M melanoma = test system: MALME-3M melanoma
MCF7 breast = test system: MCF7 breast
MDA-MB-231 breast = test system: MDA-MB-231 breast
MDA-MB-435 = test system: MDA-MB-435
MDA-N = test system: MDA-N
MOLT-4 leukemia = test system: MOLT-4 leukemia
NCI-H226 lung = test system: NCI-H226 lung
NCI-H23 lung = test system: NCI-H23 lung
NCI-H460 lung = test system: NCI-H460 lung
NCI-H522 lung = test system: NCI-H522 lung
NCI/ADR-RES ovarian = test system: NCI/ADR-RES ovarian
OVCAR-3 ovarian = test system: OVCAR-3 ovarian
OVCAR-4 ovarian = test system: OVCAR-4 ovarian
OVCAR-5 ovarian = test system: OVCAR-5 ovarian
OVCAR-8 ovarian = test system: OVCAR-8 ovarian
PC-3 prostate = test system: PC-3 prostate
RPMI-8226 leukemia = test system: RPMI-8226 leukemia
RXF 393 renal = test system: RXF 393 renal
SF-268 CNS = test system: SF-268 CNS
SF-539 CNS = test system: SF-539 CNS
SK-MEL-2 melanoma = test system: SK-MEL-2 melanoma
SK-MEL-28 melanoma = test system: SK-MEL-28 melanoma
SK-MEL-5 melanoma = test system: SK-MEL-5 melanoma
SK-OV-3 ovarian = test system: SK-OV-3 ovarian
SN12C renal = test system: SN12C renal
SNB-19 CNS = test system: SNB-19 CNS
SNB-75 CNS = test system: SNB-75 CNS
SR leukemia = test system: SR leukemia
SW-620 colon = test system: SW-620 colon
T-47D breast = test system: T-47D breast
TK-10 renal = test system: TK-10 renal
U251 CNS = test system: U251 CNS
UACC-257 melanoma = test system: UACC-257 melanoma
UACC-62 melanoma = test system: UACC-62 melanoma
UO-31 renal = test system: UO-31 renal
ACHN renal = test system: ACHN renal
HOP-62 NSCLC = test system: HOP-62 NSCLC
HOP-92 NSCLC = test system: HOP-92 NSCLC
SF-295 CNS = test system: SF-295 CNS

Measured: TGI

CSc1c(C#N)c(S)[nH]c(=O)c1C#N
87.5 µM: UO-31 renal
51.5 µM: MALME-3M melanoma
98 µM: A498 renal
98.9 µM: SK-MEL-5 melanoma
not listed: ACHN renal | HOP-62 NSCLC | HOP-92 NSCLC | SF-295 CNS
> 100 µM: all other assays above

O=Nc1c(O)cc(Nc2cccnc2)c2ccccc12
11.6 µM: SK-MEL-5 melanoma
26.2 µM: CCRF-CEM leukemia
95.4 µM: HCC-2998 colon
65.1 µM: NCI/ADR-RES ovarian
85 µM: RPMI-8226 leukemia
28 µM: NCI-H522 lung
45.5 µM: SW-620 colon
55.6 µM: UACC-62 melanoma
76 µM: NCI-H23 lung
58.8 µM: K-562 leukemia
90.6 µM: KM12 colon
49.9 µM: IGROV1 ovarian
42.5 µM: COLO 205 colon
64.1 µM: HCT-15 colon
8.39 µM: SNB-19 CNS
47.3 µM: MDA-MB-231 breast
11.8 µM: OVCAR-3 ovarian
53.4 µM: SF-268 CNS
41.6 µM: MOLT-4 leukemia
50.9 µM: HT29 colon
68 µM: HOP-92 NSCLC
76.6 µM: MDA-N
5.65 µM: HL-60(TB) leukemia
not listed: MALME-3M melanoma | SK-MEL-28 melanoma | SR leukemia
> 100 µM: all other assays above
